Data as given in patent EP0021678B1, “1-Sulpho-2-oxoazetidine derivatives, their production and pharmaceutical compositions thereof” (Takeda Chemical Industries, Ltd., priority 1979, dated 1981).
Read-outs that look alike come from different tables or passages of the source.

Legend:
Experiment in all cases: Anti-bacterial test, minimum inhibitory concentration on agar
Type in all cases: cell-based
[1] = tested on: Acinetobacter calcoaceticus IFO 13006; details: IFO13006; Acinetobacter calcoaceticus IFO 13006; medium TSA; read-out: Minimum inhibitory concentration
Source text: (§1) The compound (I) thus obtained is useful as a drug, being active against certain gram-positive and gram-negative bacteria. By way of example, the compounds are active against the following micro-organisms.
(§2) The media and compounds employed in the anti-bacterial test are as follows: • Media: • TSA = Trypticase soy agar • [Baltimore Biologicals (U.S.A.)] • B-TSA = Blood trypticase soy agar • Compounds: • Compound A = Sodium 3-[2-(2-amino-4-thiazolyl)-2-methoxyiminoacetamido]-2-oxo-azetidine-1-sulphonate • Compound B = Sodium 3-[D(-)-N-(4-ethyl-2,3-dioxo-1-piperazinocarbonyl)-phenyl-glycin- amido]-2-oxoazetidine-1-sulphonate • Compound C = Sodium 3-[D(-)-N-(4-ethyl-2,3-dioxo-1-piperazinocarbonyl)phenylglycinamido]-3-methoxy-2-oxoazetidine-1-sulphonate • Compound D = Sodium 3-[2-(4-ethyl-2,3-dioxo-1-piperazinocarboxamido)-2-(2-amino-4-thiazolyl)-acetamido]-2-oxoazetidine-1-sulphonate • Compound E = Sodium 3-[DL-2-(4-ethyl-2,3-dioxo-1-piperazinocarboxamido)-2-thienylacetamido]-2-oxoazetidine-1-sulphonate • Compound F = Sodium 3-[D-2-(4-ethyl-2,3-dioxo-1-piperazinocarboxamido)-2-thienylacetamido]-2-oxoazetidine-1-sulphonate • Compound G = Sodium 3-[D-2-(4-n-octyl-2,3-dioxo-1-piperazinocarboxamido)-2-phenylacetamido]-2-oxoazetidine-1-sulphonate • Compound H = Sodium 3-[2-(4-n-octyl-2,3-dioxo-1-piperazinocarboxamido)-2-(2-amino-4-thiazolyl)-acetamido]-2-oxoazetidine-1-sulphonate • Compound I = Sodium 3-[D-2-[(2-oxo-3-furfurylideneaminoimidazolidin-1-yl)-carboxamido]-2-phenylacetamido]-2-oxoazetidine-1-sulphonate • Compound J = Sodium 3-[2-(4-n-octyl-2,3-dioxo-1-piperazinocarboxamido)-2-thienylacetamido]-2-oxoazetidine-1-sulphonate • Compound K = Sodium 3-[D-2-[[2-oxo-3-(thiophen-2-aidoimino)-imidazolidin-1-yl]-carboxamido]-2-phenylacetamido]-2-oxoazetidine-1-sulphonate • Compound L = Sodium 3-[2-[(2-oxo-3-furfurylideneaminoimidazolidin-1-yl)-carboxamido]-2-thienylacetamido]-2-oxoazetidine-1-sulphonate

[2] = tested on: Bordetella bronchiseptica Sagami; details: Bordetella bronchiseptica Sagami; medium B—TSA; read-out: Minimum inhibitory concentration
Source text: as §1, §2

Candida albicans TA = details: Candida albicans TA; medium TSA; read-out: Minimum inhibitory concentration
Source text: as §1, §2

[3] = tested on: Citrobacter freundii IFO 12681; details: IFO12681; Citrobacter freundii IFO 12681; medium TSA; read-out: Minimum inhibitory concentration
Source text: as §1, §2

[4] = tested on: Corynebacterium diphtheriae Toronto; details: Corynebacterium diphtheriae Toronto; medium B—TSA; read-out: Minimum inhibitory concentration
Source text: as §1, §2

[5] = tested on: Enterobacter cloacae IFO 12937; details: IFO12937; Enterobacter cloacae IFO 12937; medium TSA; read-out: Minimum inhibitory concentration
Source text: as §1, §2

[6] = tested on: Escherichia coli NIHJ JC—2; details: Escherichia coli NIHJ JC—2; medium TSA; read-out: Minimum inhibitory concentration
Source text: as §1, §2

Escherichia coli O—111 = details: medium TSA
Source text: as §1, §2

Escherichia coli T-7 = details: T7, medium TSA
Source text: as §1, §2

Klebsiella pneumoniae DT = details: Klebsiella pneumoniae DT; medium TSA; read-out: Minimum inhibitory concentration
Source text: as §1, §2

[7] = tested on: Proteus mirabilis IFO 3849; details: IFO3849; Proteus mirabilis IFO 3849; medium TSA; read-out: Minimum inhibitory concentration
Source text: as §1, §2

[8] = tested on: Proteus morganii IFO 3168; details: Morganella morganii, IFO3168; Proteus morganii IFO 3168; medium TSA; read-out: Minimum inhibitory concentration
Source text: as §1, §2

[9] = tested on: Proteus vulgaris IFO 3988; details: IFO3988; Proteus vulgaris IFO 3988; medium TSA; read-out: Minimum inhibitory concentration
Source text: as §1, §2

[10] = tested on: Pseudomonas aeruginosa IFO 3455; details: IFO3455; Pseudomonas aeruginosa IFO 3455; medium TSA; read-out: Minimum inhibitory concentration
Source text: as §1, §2

[11] = tested on: Pseudomonas aeruginosa U 31; details: U31; Pseudomonas aeruginosa U 31; medium TSA; read-out: Minimum inhibitory concentration
Source text: as §1, §2

[12] = tested on: Serratia marcescens IFO 12648; details: IFO12648; Serratia marcescens IFO 12648; medium TSA; read-out: Minimum inhibitory concentration
Source text: as §1, §2

[13] = tested on: Staphylococcus aureus 1840; details: Staphylococcus aureus 1840; medium TSA; read-out: Minimum inhibitory concentration
Source text: as §1, §2

[14] = tested on: Staphylococcus aureus 308A—1; details: read-out: Minimum inhibitory concentration
Source text: as §1, §2

[15] = tested on: Staphylococcus aureus FDA209P; details: Staphylococcus aureus, FDA209P, Staphylococcus aureus FDA209P, read-out: Minimum inhibitory concentration
Source text: as §1, §2

[16] = tested on: Streptococcus faecium IFO 3128; details: Enterococcus faecium, IFO3128; Streptococcus faecium IFO 3128; medium B—TSA; read-out: Minimum inhibitory concentration
Source text: as §1, §2

[17] = tested on: Streptococcus mitis America; details: Streptococcus mitis America; medium B—TSA; read-out: Minimum inhibitory concentration
Source text: as §1, §2

[18] = tested on: Streptococcus pneumoniae Type I; details: read-out: Minimum inhibitory concentration
Source text: as §1, §2

[19] = tested on: Streptococcus pyogenes E—14; details: read-out: Minimum inhibitory concentration
Source text: as §1, §2

[20] = tested on: Streptococcus pyogenes S—8; details: Streptococcus pyogenes S—8; medium B—TSA; read-out: Minimum inhibitory concentration
Source text: as §1, §2

[21] = Staphylococcus aureus 308A—1, medium TSA
[22] = Streptococcus pneumoniae Type I, medium B—TSA
[23] = Streptococcus pyogenes E—14, medium B—TSA

SMILES | MIC [1] | MIC [2] | MIC (Candida albicans TA) | MIC [3] | MIC [4] | MIC [5] | MIC [6] | MIC (Escherichia coli O—111) | MIC (Escherichia coli T-7) | MIC (Klebsiella pneumoniae DT) | MIC [7] | MIC [8] | MIC [9] | MIC [10] | MIC [11] | MIC [12] | MIC [13] | MIC ([15]; medium B—TSA) | MIC ([15]; medium TSA) | MIC [16] | further results
CCCCCCCCN1CCN(C(=O)NC(C(=O)NC2CN(S(=O)(=O)O)C2=O)c2csc(N)n2)C(=O)C1=O (stereo not drawn) [Compound H, Sodium 3-[2-(4-n-octyl-2,3-dioxo-1-piperazinocarboxamido)-2-(2-amino-4-thiazolyl)-acetamido]-2-oxoazetidine-1-sulphonate] | 50 µg/mL | > 100 µg/mL | > 100 µg/mL | 12.5 µg/mL | 0.78 µg/mL | 50 µg/mL | 12.5 µg/mL | 3.13 µg/mL | > 100 µg/mL | 12.5 µg/mL | 25 µg/mL | 6.25 µg/mL | 6.25 µg/mL | 12.5 µg/mL | 50 µg/mL | 12.5 µg/mL | 12.5 µg/mL | 12.5 µg/mL | 6.25 µg/mL | > 100 µg/mL | MIC ([14]; Staphylococcus aureus): 3.13 µg/mL; MIC [17]: 25 µg/mL; MIC ([18]; Streptococcus pneumoniae): 3.13 µg/mL; MIC ([19]; Streptococcus pyogenes): 3.13 µg/mL; MIC [20]: 1.56 µg/mL
CCN1CCN(C(=O)NC(C(=O)NC2CN(S(=O)(=O)O)C2=O)c2csc(N)n2)C(=O)C1=O (stereo not drawn) [Compound D, Sodium 3-[2-(4-ethyl-2,3-dioxo-1-piperazinocarboxamido)-2-(2-amino-4-thiazolyl)-acetamido]-2-oxoazetidine-1-sulphonate] | 50 µg/mL | > 100 µg/mL | > 100 µg/mL | 1.56 µg/mL | 3.13 µg/mL | 25 µg/mL | 0.39 µg/mL | 0.1 µg/mL | > 100 µg/mL | 0.2 µg/mL | 25 µg/mL | 12.5 µg/mL | 0.1 µg/mL | 3.13 µg/mL | > 100 µg/mL | 0.78 µg/mL | 25 µg/mL | 12.5 µg/mL | 12.5 µg/mL | > 100 µg/mL | MIC [14, 21]: 6.25 µg/mL; MIC [17]: 25 µg/mL; MIC [18, 22]: 6.25 µg/mL; MIC [19, 23]: 3.13 µg/mL; MIC [20]: 3.13 µg/mL
CCCCCCCCN1CCN(C(=O)N[C@@H](C(=O)NC2CN(S(=O)(=O)O)C2=O)c2ccccc2)C(=O)C1=O (stereo partly drawn) [Compound G, Sodium 3-[D-2-(4-n-octyl-2,3-dioxo-1-piperazinocarboxamido)-2-phenylacetamido]-2-oxoazetidine-1-sulphonate] | 3.13 µg/mL | > 100 µg/mL | > 100 µg/mL | 3.13 µg/mL | 25 µg/mL | 6.25 µg/mL | 3.13 µg/mL | 0.78 µg/mL | > 100 µg/mL | 0.78 µg/mL | 3.13 µg/mL | 1.56 µg/mL | 0.78 µg/mL | 1.56 µg/mL | 25 µg/mL | 1.56 µg/mL | 25 µg/mL | 3.13 µg/mL | 1.56 µg/mL | > 100 µg/mL | MIC [14, 21]: 0.78 µg/mL; MIC [17]: 25 µg/mL; MIC [18, 22]: 3.13 µg/mL; MIC [19, 23]: 1.56 µg/mL; MIC [20]: 1.56 µg/mL
